The values below come from patent publication US20240285555A1, “COMPOSITIONS FOR THE TREATMENT OF COPPER DEFICIENCY AND METHODS OF USE” (priority 2018, published 2024).

Series [1] has as its system yeast coa6Δ cells expressing patient mutations (W26C, W33R and E54X). Nature of the series: Rescue of yeast coa6Δ cells expressing yeast-human chimeric COA6 with patient mutations. The conditions noted are these: 10 nM ES. The class given is cell-based, Saccharomyces cerevisiae. From the text: Reagents. All the copper binding compounds were purchased from Sigma-Aldrich, except Elesclomol (ES), which was purchased from Selleckchem. The yeast-human hybrid (hyCOA6) gene construct was codon optimized for yeast and synthesized using GENEART® Gene Synthesis (Life Technologies). The hybrid gene hyCOA6 was cloned into pRS416 plasmid under the control of the yeast Coa6 native promoter. COA6 patient mutations were introduced by site-directed-mutagenesis (Agilent Technologies QuikChange Lightning) using hyCOA6 as a template. All the constructs were sequenced verified.
Yeast Strains and Culture Conditions. The authenticity of yeast strains was confirmed by PCR as well as by replica plating on dropout plates. Yeast cells were cultured in standard YP growth media including YPD (1% yeast extract, 2% peptone and 2% glucose), YPGal (2% galactose), YPGE (3% glycerol+1% ethanol), or synthetic media (SC glucose). […] Growth in liquid media was measured spectrophotometrically at 600 nm.
A number of copper-binding pharmacological agents were tested for their ability to rescue respiratory deficient growth of coa6Δ cells. […] To determine the biochemical basis for the observed respiratory rescue of coa6Δ cells, the assembly and activity of CcO-containing mitochondrial respiratory chain supercomplexes was measured by native-polyacrylamide gel electrophoresis blotting and in-gel activity assay, respectively. […]

The conditions of series [2]: multiple human clinical trials; cited from earlier work.
Series [3] relates to coa6Δ cells. Nature of the series: Cellular and mitochondrial copper measurements by ICP-MS in yeast. In kind it is cell-based, Saccharomyces cerevisiae. The note with it: 20 nM ES. The protocol:
FIGS. 2A, 2B, 2C, 2D and 2E illustrate elesclomol supplementation rescues CcO assembly defects by restoring mitochondrial copper levels of yeast S. cerevisiae coa6Δ cells. FIGS. 2A-2C illustrate bioenergetic parameters of wild type (WT), coa6Δ, and coa6Δ cells supplemented with 20 nM ES were cultured in YP galactose medium until early stationary growth phase. […] Error bars represent mean±SD (n=3, two-tailed unpaired Student's t-test *p<0.05, **p<0.005).
Cellular and Mitochondrial Copper Measurements. Cellular and mitochondrial copper levels were measured using the Perkin Elmer DRC II Inductively Coupled Plasma-Mass Spectrometer (ICP-MS). Intact yeast cells and isolated mitochondrial pellets were washed with 100 μM EDTA containing water, weighed, and digested with 40% nitric acid (TraceSELECT, Sigma) at 90° C. for 18 h. Samples were diluted in ultrapure metal-free water (TraceSELECT, Sigma) and analyzed by ICP-MS. Copper standard solutions were prepared by appropriate dilutions of commercially available mixed metal standards (BDH Aristar Plus). Copper concentrations in mammalian cells were also measured by ICP-MS.
ES scavenges copper from the culture medium, enters the cell as an ES-copper complex, and selectively accumulates in mitochondria where it dissociates from copper. […]

The subject of another series is zebrafish embryos. Nature of the series: Survival of zebrafish embryos treated with ES, copper and combinations. In kind it is in vivo. From the text:
NT, No treatment; ES, Elesclomol.

In another series the test system is coa6Δpic2Δ cells. Nature of the series: Respiratory growth rescue of coa6Δpic2Δ yeast. In kind it is cell-based, Saccharomyces cerevisiae. The note with it: ES supplementation.
Series [4] has as its system coa6Δ cells. Nature of the series: Oxygen consumption rate measurement. In kind it is cell-based, Saccharomyces cerevisiae. The conditions noted are these: 20 nM ES, YP galactose medium.
Description: Oxygen Consumption Measurement. For measurements of respiration rates, cells were grown to late log phase in YPGal medium and then washed, counted, and resuspended in fresh YPGal medium at 10^8 cells/ml. The rate of oxygen consumption was then measured at 30° C. using the Oxytherm (Hansatech, Norfolk, UK). Cyanide-sensitive respiration was calculated after the addition of 1 mM KCN, and the cyanide-insensitive respiration was subtracted from the total respiration.

Description for coa6Δpic2Δ cells: Yeast Strains and Culture Conditions. The authenticity of yeast strains was confirmed by PCR as well as by replica plating on dropout plates. Yeast cells were cultured in standard YP growth media including YPD (1% yeast extract, 2% peptone and 2% glucose), YPGal (2% galactose), YPGE (3% glycerol+1% ethanol), or synthetic media (SC glucose). For qualitative growth measurement, 10-fold serial dilutions of overnight cultures were spotted on YPD or YPGE plates and incubated at 30° C. and 37° C. for the indicated period. Growth in liquid media was measured spectrophotometrically at 600 nm.
To further corroborate that ES increases mitochondrial copper levels by actively transporting extracellular copper into the cells, copper availability in the extracellular compartment was decreased by co-treatment of ES with a known copper chelator, bathocuproine disulfonate (BCS). […] To determine whether ES is able to bypass a mitochondrial copper transporter, Pic2, ES supplementation in pic2Δ and coa6Δpic2Δ cells was performed.

For the compound `CN(NC(=O)CC(=O)NN(C)C(=S)c1ccccc1)C(=S)c1ccccc1` [ES, elesclomol], the “rescue of respiratory growth” value in series [1] is given as “rescued”; with coa6Δpic2Δ cells, “did rescue”. In addition, the toxicity profile result in series [2] is “favorable toxicity profile”. For the same compound, in the series with coa6Δ cells [3], the mitochondrial copper levels entry is listed as “almost complete rescue”. The “total cellular copper levels” value with coa6Δ cells [3] is recorded as “moderately increased”. Besides, the lethality in the series on zebrafish embryos (co-supplementation of 100 nM ES with 100 nM of copper) came out at 100%. Also, the maximal tolerable dose with zebrafish embryos (zebrafish embryos) was 100 nM. Also, the oxygen consumption rate result with coa6Δ cells [4] is reported as “restored the oxygen consumption rate of coa6Δ cells to that of wild type cells”.
